One experiment has as its target T1, Human Factor XIIa (Homo sapiens, UniProt P00748).
T1 construct: purchased Enzyme Research Laboratories
T1 sequence (P00748 373-615 limits assumed): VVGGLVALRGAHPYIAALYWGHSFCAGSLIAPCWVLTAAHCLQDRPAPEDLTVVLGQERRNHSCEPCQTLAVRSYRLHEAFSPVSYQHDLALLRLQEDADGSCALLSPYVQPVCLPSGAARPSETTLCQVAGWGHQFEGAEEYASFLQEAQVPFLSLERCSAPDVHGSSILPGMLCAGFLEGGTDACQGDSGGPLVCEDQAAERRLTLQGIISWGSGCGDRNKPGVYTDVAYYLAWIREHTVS
Put plainly: Factor XIIa inhibitory activity in vitro (fluorogenic substrate H-DPro-Phe-Arg-AFC). Type of experiment: biochemical. Conditions: 25° C., class symbols, read-out: Human FXIIa IC50. The method in brief: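 Enzyme incubated at 25° C with fluorogenic substrate H-DPro-Phe-Arg-AFC and a range of compound concentrations. Residual activity taken as initial reaction rate from […], giving IC50.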

The target of a further experiment is T2, Human FXIa (Homo sapiens, UniProt P03951).
T2 construct: Human FXIa (Enzyme Research Laboratories) was incubated; purchased Enzyme Research Laboratories
T2 sequence (P03951 388-625 limits assumed): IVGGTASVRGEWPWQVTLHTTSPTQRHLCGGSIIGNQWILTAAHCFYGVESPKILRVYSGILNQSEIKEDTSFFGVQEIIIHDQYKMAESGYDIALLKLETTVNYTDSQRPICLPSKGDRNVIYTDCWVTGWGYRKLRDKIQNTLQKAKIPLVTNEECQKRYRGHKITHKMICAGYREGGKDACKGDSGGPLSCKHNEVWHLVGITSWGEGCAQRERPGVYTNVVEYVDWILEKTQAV
T2 sequence (P03951 19-387 partner limits assumed): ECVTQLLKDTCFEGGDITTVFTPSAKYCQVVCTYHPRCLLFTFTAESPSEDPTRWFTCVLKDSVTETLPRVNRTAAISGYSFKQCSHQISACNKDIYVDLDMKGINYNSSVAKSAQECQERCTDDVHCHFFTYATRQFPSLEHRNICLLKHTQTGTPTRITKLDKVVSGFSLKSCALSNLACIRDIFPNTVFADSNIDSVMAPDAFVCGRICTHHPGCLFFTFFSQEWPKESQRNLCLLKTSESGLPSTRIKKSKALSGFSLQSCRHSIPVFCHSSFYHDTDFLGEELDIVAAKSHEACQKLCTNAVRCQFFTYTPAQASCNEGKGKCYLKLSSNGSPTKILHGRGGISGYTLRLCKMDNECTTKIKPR
The experiment in a line: FXIa inhibitory activity in vitro (fluorogenic substrate Z-Gly-Pro-Arg-AFC), selectivity. Type of experiment: biochemical. Conditions: category scale, 25° C. As to the method:
Determination of the % Inhibition for FXIa
Human FXIa (Enzyme Research Laboratories) was incubated at 25° C. with the fluorogenic substrate Z-Gly-Pro-Arg-AFC and various concentrations of the test compound. Residual enzyme activity (initial rate of reaction) was determined by measuring the change in fluorescence at 410 nm and the IC50 value for the test compound was determined.

Molecules are shown by their SMILES.

With `Cc1c(CNC(=O)[C@H](C)NC(=O)[C@H](N)CCc2ccccc2)ccc2c(N)nccc12` [Example 9.06], the IC50 (commonly the concentration needed to halve the response being measured) at Human Factor XIIa was 0.1 to 0.279 µM; on Human FXIa it was 10 to 40 µM.

As to `CC(NC(=O)[C@H](N)CCc1ccccc1)C(=O)NCc1ccc2ccnc(N)c2c1` (stereo partly shown) [Example 6.21], the results for the IC50 at Human Factor XIIa and on Human FXIa were 10 to 40 µM and above 40 µM, respectively.

As to `CNC(C)(C)C(=O)N1C[C@H](c2ccccc2)C[C@H]1C(=O)NCc1ccc2c(N)nccc2c1` [Example 43.07], the IC50 on Human Factor XIIa fell in the range of 3 to 10 µM; against Human FXIa, 10 to 40 µM.

Consider `C[C@@H]1CCC[C@H](C)N1CC(=O)N1C[C@H]2[C@@H]([C@H]1C(=O)NCc1ccc3c(N)nccc3c1)C2(C)C` [Example 32.13], for which the IC50 on Human Factor XIIa was 10 to 40 µM; at Human FXIa it was above 40 µM.

Regarding `C[C@@H]1CCC[C@H](C)N1CC(=O)NC1(C(=O)NCc2ccc3c(N)nccc3c2)CCOCC1` [Example 39.11], the figures for the IC50 on Human Factor XIIa and at Human FXIa were 10 to 40 µM and above 40 µM, respectively.

As for `CC(C)N[C@H](CCCCN1CCCCC1)C(=O)N[C@@H](C)C(=O)NCc1ccc2c(N)nccc2c1` [Example 12.02], the IC50 on Human Factor XIIa fell in the range of 0.28 to 1 µM; on Human FXIa it was 10 to 40 µM.

As for `C[C@H](NC(=O)[C@H](N)CCc1ccccn1)C(=O)NCc1ccc2c(N)nccc2c1` [Example 6.13], the figures for the IC50 on Human Factor XIIa and at Human FXIa were 0.28 to 1 µM and above 40 µM, respectively.

In the case of `CC(C)N[C@H](CCCCN1CCCCC1)C(=O)N[C@@H](Cc1ccc(F)c(F)c1)C(=O)NCc1cccs1` [Example 27.07], the IC50 at Human Factor XIIa was 3 to 10 µM; on Human FXIa, above 40 µM.

As for `N[C@H](CCCCN1CCc2ccccc2C1)C(=O)N1CC[C@H]1C(=O)NCc1ccc2[nH]cc(Cl)c2c1` [Example 10.09], the IC50 at Human Factor XIIa was 1 to 3 µM; on Human FXIa, above 40 µM.

As for `N[C@H](CCCCn1ccnc1)C(=O)N1CC[C@H]1C(=O)NCc1ccc2[nH]cc(Cl)c2c1` [Example 10.13], the IC50 is 3 to 10 µM at Human Factor XIIa and above 40 µM on Human FXIa.

As to `CC(C)N[C@H](Cc1c[nH]c2ccccc12)C(=O)N1CC[C@H]1C(=O)NCc1ccc2[nH]cc(Cl)c2c1` [Example 10.18], the IC50 at Human Factor XIIa and against Human FXIa was 10 to 40 µM throughout.

For the compound `C[C@H](NC(=O)[C@H](N)CCc1ccncc1)C(=O)NCc1ccc2c(N)nccc2c1` [Example 6.15], the IC50 on Human Factor XIIa is 3 to 10 µM; at Human FXIa it was above 40 µM.

For `CC(C)N[C@H](CCCCN1CCCCC1)C(=O)N1CCC[C@H]1C(=O)NCc1cnc2[nH]cc(Cl)c2c1` [Example 27.02], the IC50 on Human Factor XIIa is 0.1 to 0.279 µM; against Human FXIa, 3 to 10 µM.

Consider `CC(C)N[C@H](CCCCN1CCCCC1)C(=O)N1CC[C@H]1C(=O)NCc1ccc2[nH]cc(Cl)c2c1` [Example 10.01, (2S)—N-[(3-Chloro-1H-indol-5-yl)methyl]-1-[(2R)-2-(isopropylamino)-6-(piperidin-1-yl)hexanoyl]azetidine-2-carboxamide], for which the IC50 is 0.03 to 0.1 µM at Human Factor XIIa and 10 to 40 µM against Human FXIa.

With `Nc1nccc2cc(CNC(=O)C3CC4CCC3N(C(=O)[C@H](N)CCc3ccccc3)C4)ccc12` (stereo partly shown) [Example 17.06], the values for the IC50 on Human Factor XIIa and against Human FXIa were 3 to 10 µM and 1 to 3 µM, respectively.

Take `CC(C)c1cc(C(=O)N[C@@H](Cc2ccc(F)c(F)c2)C(=O)NCc2ccc3c(N)nccc3c2)cnn1` [Example 0.97]: the IC50 on Human Factor XIIa was 1 to 3 µM; against Human FXIa, above 40 µM.

For `N[C@H](CCCCN1CCN(c2ncccn2)CC1)C(=O)N1CC[C@H]1C(=O)NCc1ccc2[nH]cc(Cl)c2c1` [Example 10.08], the results for the half-inhibitory concentration (IC50) at Human Factor XIIa and on Human FXIa were 3 to 10 µM and above 40 µM, respectively.

On to `N[C@H](CCCCN1CCC(F)(F)CC1)C(=O)N1CC[C@H]1C(=O)NCc1ccc2[nH]cc(Cl)c2c1` [Example 10.12], for which the IC50 on Human Factor XIIa was 1 to 3 µM; at Human FXIa, above 40 µM.

For the compound `CC(C)N[C@H](CCc1ccccc1)C(=O)N[C@@H](C)C(=O)NCc1ccc2c(N)nccc2c1` [Example 6.11], the IC50 was 0.28 to 1 µM on Human Factor XIIa and 3 to 10 µM against Human FXIa.

As for `C[C@H](NC(=O)[C@@H]1NCc2ccccc21)C(=O)NCc1ccc2c(N)nccc2c1` [Example 45.05], the values for the IC50 on Human Factor XIIa and at Human FXIa were 10 to 40 µM and above 40 µM, respectively.

(Values after patent US20220298138A1, “ENZYME INHIBITORS” (KALVISTA PHARMACEUTICALS LIMITED, priority 2019, published 2022).)
